The values below come from PubChem BioAssay AID588715 (Vanderbilt Specialized Chemistry Center, 2011).

The assay deals with Metabotropic glutamate receptor 5 (Rattus norvegicus) (UniProt P31424). Put plainly: potentiators of rat mGlu5 glutamate response – cell-based, HEK293A, calcium mobilization, SAR follow-up (AID 588715). Particulars: HEK293A rat mGluR5, Ca2+ mobilization fluorescence, PAM; for percent of glutamate ECmax: at 29.8 µM (top of the series). A general note: A change in cytosolic calcium serves as a functional read-out for many receptors and channels.

In general, EC50 refers to the concentration that produces a half-maximal response.

Active and inactive are the calls of the source. The rule behind the calls is not given here.

Metabotropic glutamate receptor 5 (Rattus norvegicus), sequence (P31424 whole entry, looked up): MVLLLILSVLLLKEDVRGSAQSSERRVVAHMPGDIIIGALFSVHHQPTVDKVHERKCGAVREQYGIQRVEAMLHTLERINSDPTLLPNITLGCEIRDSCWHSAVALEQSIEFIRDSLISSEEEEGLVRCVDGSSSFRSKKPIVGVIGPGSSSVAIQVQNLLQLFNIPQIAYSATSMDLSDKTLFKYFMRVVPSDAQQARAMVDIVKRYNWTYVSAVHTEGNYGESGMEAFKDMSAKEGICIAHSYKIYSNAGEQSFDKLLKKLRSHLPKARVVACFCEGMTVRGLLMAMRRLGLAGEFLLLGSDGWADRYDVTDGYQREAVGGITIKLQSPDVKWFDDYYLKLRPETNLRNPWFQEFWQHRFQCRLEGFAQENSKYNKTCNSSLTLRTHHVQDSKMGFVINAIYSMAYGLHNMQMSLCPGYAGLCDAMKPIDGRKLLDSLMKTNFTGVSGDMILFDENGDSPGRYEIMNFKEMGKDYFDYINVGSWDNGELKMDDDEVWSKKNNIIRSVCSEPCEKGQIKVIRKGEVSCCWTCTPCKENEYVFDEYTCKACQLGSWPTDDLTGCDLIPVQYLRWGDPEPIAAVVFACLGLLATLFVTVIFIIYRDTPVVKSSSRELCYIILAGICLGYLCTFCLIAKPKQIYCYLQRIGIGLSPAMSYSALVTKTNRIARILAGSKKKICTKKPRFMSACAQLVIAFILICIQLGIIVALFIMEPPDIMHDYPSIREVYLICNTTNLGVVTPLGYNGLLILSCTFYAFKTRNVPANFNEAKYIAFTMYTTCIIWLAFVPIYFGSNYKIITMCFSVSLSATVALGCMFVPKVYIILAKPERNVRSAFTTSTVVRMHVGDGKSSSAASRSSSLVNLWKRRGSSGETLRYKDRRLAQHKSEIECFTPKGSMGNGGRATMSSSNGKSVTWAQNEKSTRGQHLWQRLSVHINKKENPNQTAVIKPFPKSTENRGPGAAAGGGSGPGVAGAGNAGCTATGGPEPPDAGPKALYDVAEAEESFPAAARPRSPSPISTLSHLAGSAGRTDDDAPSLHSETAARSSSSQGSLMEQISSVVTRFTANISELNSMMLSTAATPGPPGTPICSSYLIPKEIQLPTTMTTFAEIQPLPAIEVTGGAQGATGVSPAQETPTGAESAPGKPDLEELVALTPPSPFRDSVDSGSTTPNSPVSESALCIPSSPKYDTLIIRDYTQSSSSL

For the molecule `O=C(NC1CC(O)C1)c1ccc(C#CC2CC2)cn1` (stereo not drawn), the “percent of glutamate ECmax” value was “inactive”. With `CC(C)(C)NC(=O)c1ccc(C#Cc2cccc(F)c2)nc1`, the concentration for a half-maximal effect (EC50) is 35 nM.

With `CC(C)(CO)NC(=O)c1ccc(C#CC2CC2)nc1`, the “percent of glutamate ECmax” value is “inactive”. In the case of `CC(C)(CO)NC(=O)c1ccc(C#Cc2cccc(F)c2)cn1`, the EC50 is 6 nM. As to `O=C(NC1CCC1)c1ccc(C#CC2CCCC2)cn1`, the 50% effective concentration (EC50) is 265 nM. Regarding `CC1(NC(=O)c2ccc(C#CC3CC3)cn2)COC1`, the “percent of glutamate ECmax” value was “inactive”. Regarding `O=C(NC1CCC1)c1ccc(C#Cc2cccc(F)c2)cn1`, the EC50 was 12 nM. In the case of `CC(C)(CO)NC(=O)c1ccc(C#Cc2cccc(F)c2)nc1`, the half-maximal effective concentration (EC50) is 213 nM. As for `C[C@@H](NC(=O)c1ccc(C#CC2CC2)nc1)C(C)(C)O`, the “percent of glutamate ECmax” value is “inactive”. Turning to `CC(C)(CO)NC(=O)c1ccc(C#CC2CC2)cn1`, the “percent of glutamate ECmax” value is “inactive”. On to `C[C@@H](NC(=O)c1ccc(C#CC2CC2)cc1)C(C)(C)O`, for which the percent of glutamate ECmax is 45. On the same count and under the same terms, as for `CC(C)(CO)NC(=O)c1ccc(C#CC2CC2)cc1`, the entry is “inactive”. On to `O=C(NC1COC1)c1ccc(C#Cc2cccc(F)c2)nc1`, for which the concentration giving a half-maximal response (EC50) is 4820 nM. On the same count and under the same terms, as for `CC(C)(C)NC(=O)c1ccc(C#Cc2cccc(F)c2)cn1`, the figure is 13 nM; as for `CC(CO)(CO)NC(=O)c1ccc(C#Cc2cccc(F)c2)cn1`, 409 nM; as for `O=C(NC1CCC1)c1ccc(C#CC2CC2)cn1`, 1280 nM.

With `O=C(NC1CCC1)c1ccc(C#Cc2cccc(F)c2)c[n+]1[O-]`, the EC50 was 25 nM. In the case of `O=C(c1ccc(C#Cc2cccc(F)c2)cn1)N1CCCCC1`, the “percent of glutamate ECmax” value is “inactive”. As to `O=C(c1ccc(C#Cc2cccc(F)c2)cn1)N1CCC(O)CC1`, the “percent of glutamate ECmax” value is “inactive”. On the same count and under the same terms, under `O=C(O)c1ccc(C#Cc2cccc(F)c2)cn1` stands “inactive”; under `O=C(NC1CC(O)C1)c1ccc(C#CC2CC2)cc1` (stereo not drawn), “inactive”.

Turning to `O=C(c1ccc(C#Cc2ccccc2)cc1)N1CCC(O)CC1`, the EC50 is 523 nM.

Regarding `C[C@@H](NC(=O)c1ccc(C#Cc2cccc(F)c2)cn1)C(C)(C)O`, the EC50 is 8 nM.

For the molecule `C[C@@H](NC(=O)c1ccc(C#CC2CC2)cn1)C(C)(C)O`, the half-maximal effective concentration (EC50) is 1580 nM. As for `CC1(NC(=O)c2ccc(C#CC3CC3)cc2)COC1`, the “percent of glutamate ECmax” value is “inactive”. As for `O=C(COCc1ccncc1)N1CCN(c2ccc(F)cc2Cl)CC1`, the EC50 was 2280 nM.

Turning to `CC1(NC(=O)c2ccc(C#CC3CC3)nc2)COC1`, the “percent of glutamate ECmax” value was “inactive”. On to `O=C(NC1CCC1)c1ccc(C#CC2CC2)c[n+]1[O-]`, for which the “percent of glutamate ECmax” value is “inactive”.

Turning to `O=C(NC1CC(O)C1)c1ccc(C#Cc2cccc(F)c2)cn1` (stereo not drawn), the EC50 was 193 nM. Same read-out and setting: under `C[C@@H](NC(=O)c1ccc(C#Cc2cccc(F)c2)nc1)C(C)(C)O` stands 90 nM; under `O=C(NC1CCC1)c1ccc(C#Cc2cccc(F)c2)nc1`, 71 nM; under `O=C(c1ccc(C#Cc2cccc(F)c2)nc1)N1CCC(O)CC1`, 545 nM. On to `CC1(NC(=O)c2ccc(C#Cc3cccc(F)c3)nc2)COC1`, for which the percent of glutamate ECmax was 40.
